Counter-ions that a name gives are not always drawn.
Columns and labels:
CYP2C19 = CYP2C19 (Homo sapiens, UniProt P33261); test: CYP inhibition; format: in vitro ADME
[1] = system: LOX melanoma (B-RAF V600E mutation) xenografts; test: xenograft efficacy study; format: in vivo, BALB/C nude mice; details: LOX xenografts in nude mice, oral
Description: (§1) Human cancer cells were inoculated subcutaneously in the right axilla region of BALB/C nude mice to generate tumor xenografts. On the day of implantation, the cell culture medium was replaced with fresh medium. Three hours later, the media was removed and the cells were collected and re-suspended in cold (4° C.) PBS prior to inoculation. The right axilla region of each mouse was cleaned with 70% ethanol prior to cell inoculation. Each animal was injected subcutaneously with desired cells in 200 μl of cell suspension in the right front flank via a 26-gauge needle. After implantation tumor volumes were measured twice weekly in two dimensions using a calliper. Tumor volume was calculated using the formula: V=0.5×(a×b^2) where a and b are the long and short diameters of the tumor, respectively.
(§2) For in vivo efficacy studies, when the average tumor size reaches 100˜200 mm^3, animals were assigned into desired number of groups with 6-10 mice per group using a stratified randomization procedure. The groups consisted of a control group (no drug treatment), and different dose levels of Crystalline Form A* of Compound 1 Sesqui-Maleate treatment groups (ranged from 1-20 mg/kg). All doses were based on free-base weight. Drugs were administered by oral gavage once (qd) or twice (bid) daily; dosing frequency depended on the individual case for tumor growth. Treatments were administered by oral gavage (p.o.) in a volume of 10 ml/kg body weight. Body weight was assessed immediately before dosing and the volume dosed was adjusted accordingly. Individual body weights and tumor volumes were determined twice weekly, with mice being monitored daily for clinical signs of toxicity for the duration of the study. Mice were euthanized using carbon dioxide once their tumor volume reached 2000 mm^3, the tumor was ulcerated, or body weight loss exceeded 20%. All group data was analyzed using the t test. If the p value was <0.05, it was considered to be statistically significant.
(§3) Tumor growth inhibition (TGI) was calculated using the following formula: […]

[2] = system: HCC827 lung carcinoma (EGFR mutation) xenografts; test: xenograft efficacy study; format: in vivo, BALB/C nude mice; details: HCC827 xenografts in nude mice, oral
Description: as §1, §2, §3

[3] = system: A431 epidermoid carcinoma (EGFR overexpression) xenografts; test: xenograft efficacy study; format: in vivo, BALB/C nude mice; details: A431 xenografts in nude mice, oral
Description: as §1, §2, §3

[4] = system: Colo205 colorectal carcinoma (B-RAF V600E mutation) xenografts; test: xenograft efficacy study; format: in vivo, BALB/C nude mice; details: Colo205 xenografts in nude mice, oral
Description: as §1, §2, §3

[5] = system: WiDr colorectal carcinoma (B-RAF V600E mutation) xenografts; test: xenograft efficacy study; format: in vivo, BALB/C nude mice; details: WiDr xenografts in nude mice, oral
Description: as §1, §2, §3

[6] = system: HT29 colorectal carcinoma (B-RAF V600E mutation) xenografts; test: xenograft efficacy study; format: in vivo, BALB/C nude mice; details: HT29 xenografts in nude mice, oral
Description: as §1, §2, §3

[7] = system: human A375 melanoma (B-RAF V600E mutation) xenografts; test: xenograft efficacy study; format: in vivo, BALB/C nude mice; details: A375 xenografts in nude mice, oral
Description: as §1, §2, §3

[8] = system: EGFR phosphorylation in HCC827 cells; test: cellular phospho-EGFR TR-FRET assay; format: cell-based; details: Homo sapiens; EGFR mutant HCC827 lung cancer cells, 1 h treatment
Description: (§4) A375, Sk-Mel-28, HT29, Colo205, A431, and HCC827 cell lines were purchased from American Type Culture Collection. All the cell lines used in the cellular assays were cultured in the designated medium supplemented with 10% fetal bovine serum (FBS, Thermo Scientific), 100 units/mL penicillin (Gibco), 0.1 mg/mL streptomycin (Gibco) and in a humidified 37° C. environment with 5% CO2. Cell lines were reinstated from frozen stocks laid down within three passages from the original cells purchased and passaged no more than 30 times.
(§5) Cellular phospho-ERK and phospho-EGFR were measured using a TR-FRET-based method. Cells were seeded at 3×10^4 per well of a 96-well plate and left to attach for 16 hours. Growth medium was then replaced with 100 μL of medium containing no serum. Cells were then treated with a 10-point titration of compound. After 1 h of compound treatment, 50 μL of lysis buffer (Cisbio) were added to each well. Plates were then incubated at room temperature with shaking for 30 min. A total of 16 μL of cell lysate from each well of a 96-well plate was transferred to a 384-well small volume white plate. […] FRET signals were measured using a PHERAstar FS reader (BMG Labtech). IC50 values for ERK or EGFR phosphorylation was determined using GraphPad Prism software.

[9] = system: EGFR phosphorylation in A431 cells; test: cellular phospho-EGFR TR-FRET assay; format: cell-based; details: Homo sapiens, A-431; EGFR overexpressing A431 cells, 1 h treatment
Description: as §4, §5

Sequence of CYP2C19 (P33261 whole entry): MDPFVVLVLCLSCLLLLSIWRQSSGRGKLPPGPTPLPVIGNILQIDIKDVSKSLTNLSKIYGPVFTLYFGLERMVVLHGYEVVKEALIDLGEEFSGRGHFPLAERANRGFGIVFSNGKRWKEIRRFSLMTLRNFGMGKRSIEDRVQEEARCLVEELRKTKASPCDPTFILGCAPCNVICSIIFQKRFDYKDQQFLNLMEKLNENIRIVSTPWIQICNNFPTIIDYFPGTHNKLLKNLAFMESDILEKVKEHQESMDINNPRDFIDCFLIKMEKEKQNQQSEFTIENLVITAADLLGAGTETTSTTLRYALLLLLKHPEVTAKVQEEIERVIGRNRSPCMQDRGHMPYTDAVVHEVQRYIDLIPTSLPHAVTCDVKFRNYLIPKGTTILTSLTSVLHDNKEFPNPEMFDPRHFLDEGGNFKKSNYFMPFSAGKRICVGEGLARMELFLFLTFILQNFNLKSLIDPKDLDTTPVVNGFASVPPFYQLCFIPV

O=C1CCc2c(Oc3ccc4c(c3)[C@@H]3[C@H](O4)[C@H]3c3nc4ccc(C(F)(F)F)cc4[nH]3)ccnc2N1 [5-(((1R,1aS,6bR)-1-(6-(trifluoromethyl)-1H-benzo[d]imidazol-2-yl)-1a,6b-dihydro-1H-cyclopropa[b]benzofuran-5-yl)oxy)-3,4-dihydro-1,8-naphthyridin-2(1H)-one sesqui-maleate salt] was tested, and the IC50 (CYP2C19) was 1.96 µM, the antitumor activity [1] was “marked antitumor activity” and the antitumor activity [2] was “marked antitumor activity”. For the same compound, the antitumor activity [3] was “marked antitumor activity”, the antitumor activity [4] was “marked antitumor activity” and the antitumor activity [5] was “marked antitumor activity”. For the same compound, the antitumor activity [6] was “marked antitumor activity”, the antitumor activity [7] was “marked antitumor activity” and the IC50 [8] was 0.161 µM. The IC50 [9] was 0.385 µM.

Reference: patent publication US10351559B2, “Maleate salts of a B-RAF kinase inhibitor, crystalline forms, methods of preparation, and uses therefore” (BeiGene, Ltd., priority 2015, dated 2019)
